Test results: the NIST ThermoML archive (doi:10.1016/j.jct.2006.07.025)

Assay: xn = mol fraction of the nth substance listed
Details: for surface tension liquid-gas: Pendant drop shape; for mass density: 101 kPa, Liquid, Vibrating tube method

Cc1cc(C)cc(C)c1 [1,3,5-trimethylbenzene] + CCCCOC(C)=O
Details | mass density [kg/m3] | surface tension liquid-gas [mN/m]
298.15 K, x2 = 0 | 861.04 | 28.09
298.15 K, x2 = 0.0736 | 861.9 | –
298.15 K, x2 = 0.1009 | 862.23 | 27.72
298.15 K, x2 = 0.1521 | 862.84 | –
298.15 K, x2 = 0.2018 | 863.45 | 27.34
298.15 K, x2 = 0.2523 | 864.09 | –
298.15 K, x2 = 0.3003 | 864.7 | 26.98
298.15 K, x2 = 0.3499 | 865.36 | –
298.15 K, x2 = 0.4005 | 866.03 | 26.61
298.15 K, x2 = 0.45 | 866.72 | –
298.15 K, x2 = 0.4996 | 867.44 | 26.27
298.15 K, x2 = 0.5446 | 868.11 | –
298.15 K, x2 = 0.5979 | 868.92 | 25.93
298.15 K, x2 = 0.6503 | 869.76 | –
298.15 K, x2 = 0.7016 | 870.59 | 25.62
298.15 K, x2 = 0.7504 | 871.44 | –
298.15 K, x2 = 0.8005 | 872.32 | 25.36
298.15 K, x2 = 0.846 | 873.17 | –
298.15 K, x2 = 0.8981 | 874.13 | 25.12
298.15 K, x2 = 0.9333 | 874.87 | –
303.15 K, x2 = 0 | 856.96 | 27.67
303.15 K, x2 = 0.1005 | 858.04 | 27.29
303.15 K, x2 = 0.1997 | 859.17 | 26.9
303.15 K, x2 = 0.3 | 860.37 | 26.53
303.15 K, x2 = 0.3996 | 861.61 | 26.14
303.15 K, x2 = 0.5007 | 862.98 | 25.79
303.15 K, x2 = 0.6007 | 864.4 | 25.45
303.15 K, x2 = 0.7001 | 865.94 | 25.12
303.15 K, x2 = 0.7971 | 867.56 | 24.85
303.15 K, x2 = 0.9009 | 869.4 | 24.6
308.15 K, x2 = 0 | 852.84 | 27.24
308.15 K, x2 = 0.1002 | 853.8 | 26.84
308.15 K, x2 = 0.1986 | 854.82 | 26.44
308.15 K, x2 = 0.2997 | 855.94 | 26.05
308.15 K, x2 = 0.4003 | 857.12 | 25.66
308.15 K, x2 = 0.5007 | 858.39 | 25.29
308.15 K, x2 = 0.5997 | 859.71 | 24.94
308.15 K, x2 = 0.7005 | 861.18 | 24.6
308.15 K, x2 = 0.8 | 862.75 | 24.32
308.15 K, x2 = 0.9006 | 864.44 | 24.07
313.15 K, x2 = 0 | 848.74 | 26.82
313.15 K, x2 = 0.0498 | 849.12 | –
313.15 K, x2 = 0.0997 | 849.59 | 26.39
313.15 K, x2 = 0.15 | 850.08 | –
313.15 K, x2 = 0.2012 | 850.6 | 25.97
313.15 K, x2 = 0.2502 | 851.13 | –
313.15 K, x2 = 0.2996 | 851.64 | 25.57
313.15 K, x2 = 0.3507 | 852.22 | –
313.15 K, x2 = 0.3987 | 852.78 | 25.16
313.15 K, x2 = 0.4497 | 853.39 | –
313.15 K, x2 = 0.5008 | 854 | 24.79
313.15 K, x2 = 0.5499 | 854.62 | –
313.15 K, x2 = 0.5964 | 855.24 | 24.42
313.15 K, x2 = 0.6503 | 855.99 | –
313.15 K, x2 = 0.6995 | 856.68 | 24.07
313.15 K, x2 = 0.7499 | 857.4 | –
313.15 K, x2 = 0.7994 | 858.19 | 23.79
313.15 K, x2 = 0.8499 | 858.99 | –
313.15 K, x2 = 0.9 | 859.83 | 23.54
313.15 K, x2 = 0.9495 | 860.67 | –

Cc1cc(C)cc(C)c1 [1,3,5-trimethylbenzene] + CCCOC(C)=O
Details | mass density [kg/m3] | surface tension liquid-gas [mN/m]
298.15 K, x2 = 0 | 861.04 | 28.09
298.15 K, x2 = 0.0498 | 861.7 | –
298.15 K, x2 = 0.0996 | 862.38 | 27.63
298.15 K, x2 = 0.1504 | 863.1 | –
298.15 K, x2 = 0.2006 | 863.85 | 27.16
298.15 K, x2 = 0.2502 | 864.63 | –
298.15 K, x2 = 0.3006 | 865.46 | 26.7
298.15 K, x2 = 0.3499 | 866.32 | –
298.15 K, x2 = 0.4003 | 867.23 | 26.27
298.15 K, x2 = 0.4498 | 868.17 | –
298.15 K, x2 = 0.4985 | 869.14 | 25.85
298.15 K, x2 = 0.5526 | 870.28 | –
298.15 K, x2 = 0.6001 | 871.33 | 25.46
298.15 K, x2 = 0.65 | 872.49 | –
298.15 K, x2 = 0.6987 | 873.7 | 25.09
298.15 K, x2 = 0.7369 | 874.66 | –
298.15 K, x2 = 0.7983 | 876.31 | 24.73
298.15 K, x2 = 0.8504 | 877.83 | –
298.15 K, x2 = 0.8995 | 879.31 | 24.35
298.15 K, x2 = 0.9397 | 880.63 | –
303.15 K, x2 = 0 | 856.96 | 27.67
303.15 K, x2 = 0.1 | 857.96 | 27.18
303.15 K, x2 = 0.2012 | 859.34 | 26.69
303.15 K, x2 = 0.2995 | 860.81 | 26.2
303.15 K, x2 = 0.3998 | 862.5 | 25.74
303.15 K, x2 = 0.4996 | 864.32 | 25.3
303.15 K, x2 = 0.6004 | 866.41 | 24.9
303.15 K, x2 = 0.7007 | 868.63 | 24.5
303.15 K, x2 = 0.7987 | 871.2 | 24.12
303.15 K, x2 = 0.9009 | 874.11 | 23.73
308.15 K, x2 = 0 | 852.84 | 27.24
308.15 K, x2 = 0.0985 | 853.66 | 26.73
308.15 K, x2 = 0.1992 | 854.81 | 26.2
308.15 K, x2 = 0.3018 | 856.13 | 25.69
308.15 K, x2 = 0.3991 | 857.53 | 25.21
308.15 K, x2 = 0.5009 | 859.15 | 24.75
308.15 K, x2 = 0.6012 | 861.08 | 24.33
308.15 K, x2 = 0.6997 | 863.19 | 23.91
308.15 K, x2 = 0.7983 | 865.52 | 23.52
308.15 K, x2 = 0.8997 | 868.19 | 23.11
313.15 K, x2 = 0 | 848.74 | 26.82
313.15 K, x2 = 0.0503 | 848.97 | –
313.15 K, x2 = 0.1004 | 849.28 | 26.28
313.15 K, x2 = 0.1501 | 849.65 | –
313.15 K, x2 = 0.1999 | 850.05 | 25.73
313.15 K, x2 = 0.2499 | 850.49 | –
313.15 K, x2 = 0.3004 | 851.02 | 25.19
313.15 K, x2 = 0.3502 | 851.58 | –
313.15 K, x2 = 0.3998 | 852.18 | 24.69
313.15 K, x2 = 0.449 | 852.83 | –
313.15 K, x2 = 0.5001 | 853.57 | 24.21
313.15 K, x2 = 0.5502 | 854.4 | –
313.15 K, x2 = 0.6 | 855.29 | 23.76
313.15 K, x2 = 0.6503 | 856.26 | –
313.15 K, x2 = 0.7005 | 857.33 | 23.33
313.15 K, x2 = 0.7499 | 858.44 | –
313.15 K, x2 = 0.8003 | 859.87 | 22.92
313.15 K, x2 = 0.8499 | 861.27 | –
313.15 K, x2 = 0.9003 | 862.85 | 22.5
313.15 K, x2 = 0.9504 | 864.3 | –
